Laboratory results taken from patent US9890171B2, “Aldosterone synthase inhibitors” (Boehringer Ingelheim International GmbH, priority 2014, dated 2018).

Molecular target: aldosterone synthase (CYP11B2) (Macaca fascicularis, UniProt A0A2K5UPL9)
Test: aldosterone synthase inhibition assay
Type: biochemical, cynomolgus monkey
Details: cynomolgus adrenal gland mitochondria, 2 μM corticosterone, aldosterone quantified by mass spectrometry
Description: The aldosterone synthase inhibition assay employs cynomolgus adrenal gland mitochondria as the source of aldosterone synthase (CYP11B2). Mitochondria are prepared from frozen cynomolgus monkey adrenal glands according to Method A described in by J. D. McGarry et al. (Biochem. J., 1983, 214, 21-28), with a final resuspension in the AT buffer described in R. Yamaguchi et al. (Cell Death and Differentiation, 2007, 14, 616-624), frozen as aliquots in liquid nitrogen and stored at −80° C. until use.
Assays are performed in 96-well format in a final volume of 60 μL/well, containing 100 mM potassium phosphate, pH 7.4, 1% (v/v) DMSO, and additionally, 2 μM of corticosterone and […] of mitochondrial protein. Reactions are started by the addition of NADPH to 1 mM and allowed to proceed for 60-90 minutes at 37° C. Reactions are terminated by the addition of […]. One hundred microliters are then transferred to a glass filter plate and centrifuged at 570×g for 5 minutes and the filtrate is collected. Reaction product aldosterone is quantified by mass spectrometry. To determine the assay blank value (0% activity), NADPH is omitted from some reactions.
Dose dependent inhibition is quantified by the inclusion of compound at various concentrations. Maximum activity (100%) is defined by reactions containing NADPH, but without compound. Activities at each concentration are expressed as a percentage of the maximum activity (y-axis) and plotted against concentration of compound (x-axis) and the concentration corresponding to 50% activity (IC50) determined using the XLFit curve-fitting program using a 4-parameter logistic model.

Sequence of aldosterone synthase (CYP11B2) (A0A2K5UPL9 1-503): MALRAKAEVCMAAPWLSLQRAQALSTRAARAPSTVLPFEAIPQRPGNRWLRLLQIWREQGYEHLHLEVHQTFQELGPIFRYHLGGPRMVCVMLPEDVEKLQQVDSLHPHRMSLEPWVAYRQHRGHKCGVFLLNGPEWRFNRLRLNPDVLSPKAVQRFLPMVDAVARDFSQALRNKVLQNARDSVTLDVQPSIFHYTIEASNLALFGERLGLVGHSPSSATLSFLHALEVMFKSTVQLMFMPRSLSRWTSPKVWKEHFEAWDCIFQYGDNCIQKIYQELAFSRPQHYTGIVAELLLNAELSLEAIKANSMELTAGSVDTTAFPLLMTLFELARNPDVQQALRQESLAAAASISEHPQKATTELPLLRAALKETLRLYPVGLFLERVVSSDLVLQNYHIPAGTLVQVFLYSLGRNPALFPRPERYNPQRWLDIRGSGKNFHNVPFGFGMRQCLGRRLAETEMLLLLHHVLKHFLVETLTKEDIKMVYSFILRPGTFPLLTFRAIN

Point of comparison: `Cn1ncc2cc(-c3cncc4c3COCC4O)ccc21` (single isomer, unassigned) [Compound 23, 8-(1-Methyl-1H-indazol-5-yl)-3,4-dihydro-1H-pyrano[4,3-c]pyridin-4-ol], IC50 0.195 µM. Against it:
- O=C1CCc2cc(-c3cncc4c3COCC4O)ccc2N1 (single isomer, unassigned) [Compound 1, 6-(4-Hydroxy-3,4-dihydro-1H-pyrano[4,3-c]pyridin-8-yl)-3,4-dihydro-1H-quinolin-2-one] — 6.7-fold lower, 0.0289 µM
- O=C1CCc2cc(-c3cncc4c3COCC4O)ccc2N1 (single isomer, unassigned) [Compound 2, 6-(4-Hydroxy-3,4-dihydro-1H-pyrano[4,3-c]pyridin-8-yl)-3,4-dihydro-1H-quinolin-2-one] — 1.9-fold lower, 0.101 µM
- OC1COCc2c(-c3ccccc3)cncc21 (single isomer, unassigned) [Compound 3, 8-Phenyl-3,4-dihydro-1H-pyrano[4,3-c]pyridin-4-ol] — 2.5-fold higher, 0.484 µM
- N#Cc1ccc(-c2cncc3c2COCC3O)cc1 (single isomer, unassigned) [Compound 4, 4-(4-Hydroxy-3,4-dihydro-1H-pyrano[4,3-c]pyridin-8-yl)-benzonitrile] — 4.6-fold lower, 0.042 µM
- OC1COCc2c(-c3ccccc3)cncc21 (single isomer, unassigned) [Compound 5, 8-Phenyl-3,4-dihydro-1H-pyrano[4,3-c]pyridin-4-ol] — 3.5-fold lower, 0.055 µM
- N#Cc1ccc(-c2cncc3c2COCC3O)cc1 (single isomer, unassigned) [Compound 6, 4-(4-Hydroxy-3,4-dihydro-1H-pyrano[4,3-c]pyridin-8-yl)-benzonitrile] — 20-fold lower, 0.0098 µM
- N#Cc1ccc(-c2cncc3c2COCC3O)cc1Cl (single isomer, unassigned) [Compound 7, 2-Chloro-4-(4-hydroxy-3,4-dihydro-1H-pyrano[4,3-c]pyridin-8-yl)-benzonitrile] — 32-fold lower, 0.0061 µM
- CC(C)Oc1nc(-c2cncc3c2COCC3O)cs1 (single isomer, unassigned) [Compound 8, 8-(2-Isopropoxy-thiazol-4-yl)-3,4-dihydro-1H-pyrano[4,3-c]pyridin-4-ol] — 19-fold higher, 3.7 µM
- Cc1n[nH]c2ccc(-c3cncc4c3COCC4O)cc12 (single isomer, unassigned) [Compound 10, 8-(3-Methyl-1H-indazol-5-yl)-3,4-dihydro-1H-pyrano[4,3-c]pyridin-4-ol] — 1.7-fold lower, 0.115 µM
- Cc1n[nH]c2cc(-c3cncc4c3COCC4O)ccc12 (single isomer, unassigned) [Compound 11, 8-(3-Methyl-1H-indazol-6-yl)-3,4-dihydro-1H-pyrano[4,3-c]pyridin-4-ol] — 3.5-fold higher, 0.69 µM
- Cc1n[nH]c2ccc(-c3cncc4c3COCC4O)cc12 (single isomer, unassigned) [Compound 12, 8-(3-Methyl-1H-indazol-5-yl)-3,4-dihydro-1H-pyrano[4,3-c]pyridin-4-ol] — 9.3-fold lower, 0.021 µM
- Cc1n[nH]c2cc(-c3cncc4c3COCC4O)ccc12 (single isomer, unassigned) [Compound 13, 8-(3-Methyl-1H-indazol-6-yl)-3,4-dihydro-1H-pyrano[4,3-c]pyridin-4-ol] — 2.4-fold lower, 0.081 µM
- Cn1nnc2ccc(-c3cncc4c3COCC4O)cc21 (single isomer, unassigned) [Compound 14, 8-(3-Methyl-3H-benzotriazol-5-yl)-3,4-dihydro-1H-pyrano[4,3-c]pyridin-4-ol] — 12-fold lower, 0.0157 µM
- Cn1nc(F)c2ccc(-c3cncc4c3COCC4O)cc21 (single isomer, unassigned) [Compound 15, 8-(3-Fluoro-1-methyl-1H-indazol-6-yl)-3,4-dihydro-1H-pyrano[4,3-c]pyridin-4-ol] — 25-fold lower, 0.0078 µM
- Cn1ncc2ccc(-c3cncc4c3COC3(CC3)C4O)cc21 (single isomer, unassigned) [Compound 16, 8-(1-methylindazol-6-yl)spiro[1,4-dihydropyrano[4,3-c]pyridine-3,1′-cyclopropane]-4-ol] — 16-fold lower, 0.0125 µM
- Cn1ncc2ccc(-c3cncc4c3COC3(CC3)C4O)cc21 (single isomer, unassigned) [Compound 17, 8-(1-methylindazol-6-yl)spiro[1,4-dihydropyrano[4,3-c]pyridine-3,1′-cyclopropane]-4-ol] — 24-fold lower, 0.008 µM
- Cn1ncc2cc(F)c(-c3cncc4c3COCC4O)cc21 (single isomer, unassigned) [Compound 18, 8-(5-Fluoro-1-methyl-1H-indazol-6-yl)-3,4-dihydro-1H-pyrano[4,3-c]pyridin-4-ol] — 9.7-fold lower, 0.0201 µM
- Cn1ncc2cc(F)c(-c3cncc4c3COCC4O)cc21 (single isomer, unassigned) [Compound 19, 8-(5-Fluoro-1-methyl-1H-indazol-6-yl)-3,4-dihydro-1H-pyrano[4,3-c]pyridin-4-ol] — within 1.5-fold, 0.153 µM
- OC1COCc2c(-c3ccc4scnc4c3)cncc21 (single isomer, unassigned) [Compound 20, 8-Benzothiazol-5-yl-3,4-dihydro-1H-pyrano[4,3-c]pyridin-4-ol] — 3.5-fold higher, 0.681 µM
- OC1COCc2c(-c3ccc4cc[nH]c4c3)cncc21 (single isomer, unassigned) [Compound 21, 8-(1H-Indol-6-yl)-3,4-dihydro-1H-pyrano[4,3-c]pyridin-4-ol] — the same, 0.195 µM
- OC1COCc2c(-c3ccc4ncccc4c3)cncc21 (single isomer, unassigned) [Compound 22, 8-Quinolin-6-yl-3,4-dihydro-1H-pyrano[4,3-c]pyridin-4-ol] — 3-fold lower, 0.0641 µM
- OC1COCc2c(-c3ccc4cn[nH]c4c3)cncc21 (single isomer, unassigned) [Compound 24, 8-(1H-Indazol-6-yl)-3,4-dihydro-1H-pyrano[4,3-c]pyridin-4-ol] — 2.5-fold higher, 0.48 µM
- OC1COCc2c(-c3ccc4c(c3)OCCO4)cncc21 (single isomer, unassigned) [Compound 25, 8-(2,3-Dihydro-benzo[1,4]dioxin-6-yl)-3,4-dihydro-1H-pyrano[4,3-c]pyridin-4-ol] — within 1.5-fold, 0.159 µM
- Cc1nn(C)c(C)c1-c1cncc2c1COCC2O (single isomer, unassigned) [Compound 26, 8-(1,3,5-Trimethyl-1H-pyrazol-4-yl)-3,4-dihydro-1H-pyrano[4,3-c]pyridin-4-ol] — 7.7-fold higher, 1.5 µM
- OC1COCc2c(-c3cnc4[nH]ccc4c3)cncc21 (single isomer, unassigned) [Compound 27, 8-(1H-Pyrrolo[2,3-b]pyridin-5-yl)-3,4-dihydro-1H-pyrano[4,3-c]pyridin-4-ol] — 6.7-fold higher, 1.3 µM
- OC1COCc2c(-c3ccc4c(c3)OCCCO4)cncc21 (single isomer, unassigned) [Compound 28, 8-(3,4-Dihydro-2H-benzo[b][1,4]dioxepin-7-yl)-3,4-dihydro-1H-pyrano[4,3-c]pyridin-4-ol] — 1.7-fold higher, 0.333 µM
- Cn1ncc2ccc(-c3cncc4c3COCC4O)cc21 (single isomer, unassigned) [Compound 29, 8-(1-Methyl-1H-indazol-6-yl)-3,4-dihydro-1H-pyrano[4,3-c]pyridin-4-ol] — 4-fold lower, 0.0486 µM
- OC1COCc2c(-c3ccc4cnccc4c3)cncc21 (single isomer, unassigned) [Compound 30, 8-Isoquinolin-6-yl-3,4-dihydro-1H-pyrano[4,3-c]pyridin-4-ol] — 3.6-fold lower, 0.054 µM
- OC1COCc2c(-c3ccc4[nH]ccc4c3)cncc21 (single isomer, unassigned) [Compound 31, 8-(1H-Indol-5-yl)-3,4-dihydro-1H-pyrano[4,3-c]pyridin-4-ol] — within 1.5-fold, 0.16 µM
- Cn1cc(-c2cncc3c2COCC3O)cn1 (single isomer, unassigned) [Compound 32, 8-(1-Methyl-1H-pyrazol-4-yl)-3,4-dihydro-1H-pyrano[4,3-c]pyridin-4-ol] — 14-fold higher, 2.7 µM
- OC1COCc2c(-c3ccc4scnc4c3)cncc21 (single isomer, unassigned) [Compound 33, 8-Benzothiazol-5-yl-3,4-dihydro-1H-pyrano[4,3-c]pyridin-4-ol] — 4.8-fold lower, 0.0405 µM
- OC1COCc2c(-c3ccc4cc[nH]c4c3)cncc21 (single isomer, unassigned) [Compound 34, 8-(1H-Indol-6-yl)-3,4-dihydro-1H-pyrano[4,3-c]pyridin-4-ol] — 11-fold lower, 0.0173 µM
- OC1COCc2c(-c3ccc4ncccc4c3)cncc21 (single isomer, unassigned) [Compound 35, 8-Quinolin-6-yl-3,4-dihydro-1H-pyrano[4,3-c]pyridin-4-ol] — 20-fold lower, 0.0097 µM
- Cn1ncc2cc(-c3cncc4c3COCC4O)ccc21 (single isomer, unassigned) [Compound 36, 8-(1-Methyl-1H-indazol-5-yl)-3,4-dihydro-1H-pyrano[4,3-c]pyridin-4-ol] — 11-fold lower, 0.0175 µM
- OC1COCc2c(-c3ccc4cn[nH]c4c3)cncc21 (single isomer, unassigned) [Compound 37, 8-(1H-Indazol-6-yl)-3,4-dihydro-1H-pyrano[4,3-c]pyridin-4-ol] — 2.1-fold lower, 0.0944 µM
- OC1COCc2c(-c3ccc4c(c3)OCCO4)cncc21 (single isomer, unassigned) [Compound 38, 8-(2,3-Dihydro-benzo[1,4]dioxin-6-yl)-3,4-dihydro-1H-pyrano[4,3-c]pyridin-4-ol] — 16-fold lower, 0.012 µM
